Results published in US11382877B2, “Formulation of (E)-2,4,6-trimethoxystyryl-3-[(carboxymethyl)amino]-4-methoxybenzylsulphone with enhanced stability and bioavailability” (ONCONOVA THERAPEUTICS, INC., priority 2017, dated 2022).
Structures can show the parent of a compound that is named as a salt.

Assays:
[1] = Phase II, Part 2 study of shorter spacing between two oral doses with azacitidine, urinary adverse events; format: in vivo, patients; details: doses administered about 8 hours apart
Description: This study was conducted in patients with high risk MDS. RAEB-t (Refractory Anemia with Excess Blasts in Transformation)/non-proliferative AML were eligible but patients with CMML (Chronic Myelomonocytic Leukemia) were excluded.
The Phase II, Part 2 component of the study consisted of 2 cohorts of up to 40 evaluable patients randomized 1:1 into 2 cohorts of up to 20 patients each to receive 1120 mg of rigosertib over 24 hours: either 560 mg in the morning before breakfast in the fasting state and 560 mg in the afternoon, or 840 mg in the morning before breakfast in the fasting state and 280 mg in the afternoon. The afternoon dose in both cohorts must be administered at 3 PM (±1 hr) at least 2 hours after lunch. Each cohort will be stratified among HMA (hypomethylating agents) naïve and HMA refractory patients.
Each patient was required to complete a diary indicating the day and time of drug intake and record daily urinary dipstick pH and microscopic hematuria test. Rigosertib was supplied as 280 mg and 70 mg (in the event that different doses are needed) capsules by Onconova. […]
Safety assessment: medical history, physical examination, vital signs (blood pressure, temperature, respiration rate, and pulse), weight, standard 12-lead ECG, laboratory evaluations, and toxicity and AE assessments were monitored throughout the study. […]

[2] = administered orally; cited from earlier work
[3] = system: immature bone marrow cells; assay: Higher risk MDS patients who previously failed Vidaza or Dacogen; format: in vivo; details: higher risk MDS patients after failure of azacitidine or decitabine
From the text: In another embodiment, the efficacy of Rigosertib was shown in higher risk MDS patients who had previously failed treatment with Vidaza (azacitidine) or Dacogen (decitabine). […] These patients experienced at least a 50 percent decrease or stabilization in the number of immature bone marrow cells, and their median survival was about 36 weeks.

[4] = Phase 2 study in lower risk transfusion-dependent MDS patients, continuous vs intermittent oral administration, urinary adverse events; format: in vivo
Description: Soft gelatin capsule of Rigosertib was tested in this phase 2 study in LR (Lower Risk intermediate-1 or low risk per IPSS classification) transfusion-dependent MDS patients. The capsules (560 mg) were administered twice a day, under fasting conditions, approximately 12 hours apart. The total dose of drug was 1120 mg per day. Various treatment regimens were tested: • Continuous administration, i.e 4 out of 4 weeks. 9 patients were treated. • Intermittent administration; i.e 2 weeks on and one week off. 35 patients were treated. Safety assessment: medical history, physical examination, vital signs (blood pressure, temperature, respiration rate, and pulse), weight, standard 12-lead ECG, laboratory evaluations, and toxicity and AE assessments were monitored throughout the study. Urinary Adverse Events are pollakiuria, micturition urgency, urinary tract pain, hematuria and dysuria.

[5] = system: immature bone marrow cells (blasts); assay: Intravenous infusion trials in MDS patients; format: in vivo
Description: According to one embodiment, Rigosertib was given as an intravenous infusion to MDS patients. In one trial, patients received 800 mg Rigosertib for two to five days every other week. According to another embodiment, patients received 650 to 1,700 mg Rigosertib for three to six days every other week. According to yet another embodiment, patients were initially treated with 800 mg to 1,500 mg Rigosertib for two days every week for three weeks followed by one week without treatment. The treatment schedule in these studies was later changed to 1,800 mg Rigosertib per day for three days every other week.

[6] = 560 mg bid q12 hrs, intermittent 2 weeks on/1 week off, n = 35

COc1cc(OC)c(/C=C/S(=O)(=O)Cc2ccc(OC)c(NCC(=O)O)c2)c(OC)c1 [Rigosertib, (E)-2,4,6-trimethoxystyryl-3-[(carboxymethyl)amino]-4-methoxybenzylsulphone sodium salt]
Incidence of urinary adverse events (in words) [1]: dramatic reduction | Common adverse event [2]: urothelial toxicity | Decrease or stabilization in the number of immature bone marrow cells [3]: ≥ 50% | Median survival [3]: about 36 weeks | Incidence of Urinary AEs, Grade 1/2 (% of Patients) [4, 6]: 71% | Incidence of Urinary AEs, Grade 1/2, number of patients [4, 6]: 25 | Incidence of Urinary AEs, Grade 3 (% of Patients) [4, 6]: 23% | Incidence of Urinary AEs, Grade 3, number of patients [4, 6]: 8 | Urinary adverse events (in words) ([4]; continuous administration 4 out of 4 weeks, 560 mg twice a day): high urinary adverse events | Tolerability compared to continuous administration ([4]; intermittent administration 2 weeks on and one week off, 560 mg twice a day): better tolerated | Decrease or stabilization in the number of immature bone marrow cells (blasts) [5]: ≥ 50%
